In patent publication US12077503B2, “Substituted cyclic amides and their use as herbicides” (FMC CORPORATION, priority 2015, dated 2024):

Tests used:
Format in all cases: in vivo
[1] = system: ragweed (common ragweed, Ambrosia elatior); test: Test A postemergence; conditions: Ambrosia artemisiifolia, post-emergence, 240 h, Postemergence
In short: (§1)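 Compounds were formulated in a non-phytotoxic solvent mixture with surfactant and applied as a preemergence directed soil spray after seeding, or sprayed postemergence over plants 2 to 10 cm tall at the one- to two-leaf stage. Evaluation after about 10 d compared treated with untreated controls, using a scale from 0 (no effect) to 100 (complete control).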

Kochia (Kochia scoparia) [2] = test: Test A postemergence; conditions: Bassia scoparia, post-emergence, 240 h, Postemergence
In short: as §1

[3] = system: wheat (Triticum aestivum); test: Test A postemergence; conditions: Triticum aestivum, post-emergence, 240 h, Postemergence
In short: as §1

[4] = system: blackgrass (Alopecurus myosuroides); test: Test A postemergence; conditions: Alopecurus myosuroides, post-emergence, 240 h, Postemergence
In short: as §1

corn (Zea mays) = test: Test A postemergence; conditions: Zea mays, post-emergence, 240 h, Postemergence
In short: as §1

[5] = system: ryegrass, Italian (Italian ryegrass, Lolium multiflorum); test: Test A postemergence; conditions: Lolium multiflorum, post-emergence, 240 h, Postemergence
In short: as §1

[6] = system: pigweed (Amaranthus retroflexus); test: Test A postemergence; conditions: Amaranthus retroflexus, post-emergence, 240 h, Postemergence
In short: as §1

[7] = system: giant foxtail (Setaria faberii); test: Test A postemergence; conditions: Setaria faberi, post-emergence, 240 h, Postemergence
In short: as §1

[8] = system: Galium (catchweed bedstraw, Galium aparine); test: Test A postemergence; conditions: Galium, post-emergence, 240 h, Postemergence
In short: as §1

[9] = system: barnyardgrass (Echinochloa crus-galli); test: Test A postemergence; conditions: Echinochloa crus-galli, post-emergence, 240 h, Postemergence
In short: as §1

[10] = system: ragweed (common ragweed, Ambrosia elatior); test: Test A preemergence; conditions: Ambrosia artemisiifolia, pre-emergence, 240 h
In short: as §1

Kochia (Kochia scoparia) [11] = test: Test A preemergence; conditions: Bassia scoparia, pre-emergence, 240 h
In short: as §1

[12] = system: ryegrass, Italian (Italian ryegrass, Lolium multiflorum); test: Test A preemergence; conditions: Lolium multiflorum, pre-emergence, 240 h
In short: as §1

[13] = system: pigweed (Amaranthus retroflexus); test: Test A preemergence; conditions: Amaranthus retroflexus, pre-emergence, 240 h
[14] = system: giant foxtail (Setaria faberii); test: Test A preemergence; conditions: Setaria faberi, pre-emergence, 240 h
In short: as §1

[15] = system: barnyardgrass (Echinochloa crus-galli); test: Test A preemergence; conditions: Echinochloa crus-galli, pre-emergence, 240 h
In short: as §1

For `Cc1cc(F)cc([C@H]2CNC(=O)[C@@H]2C(=O)Nc2cccc(F)c2F)c1` [Compound 1309], the pest or weed control at 125 g/ha ([1]; 125 g ai/ha, visual rating about 10 d after treatment, read-out: Ragweed plant response rating (0 to 100 scale)) was 0%, the pest or weed control at 500 g/ha ([1]; 500 g ai/ha, visual injury, 0 to 100 scale (0 no effect, 100 complete control), approx. 10 d, read-out: Plant response rating, Ragweed) was 30% and the pest or weed control at 125 g/ha (Kochia (Kochia scoparia) [2]; 125 g ai/ha, visual rating about 10 d after treatment, read-out: Kochia plant response rating (0 to 100 scale)) was 0%. For the same molecule, the pest or weed control at 500 g/ha (Kochia (Kochia scoparia) [2]; 500 g ai/ha, visual injury, 0 to 100 scale (0 no effect, 100 complete control), approx. 10 d, read-out: Plant response rating, Kochia) was 50%, the plant injury at 125 g/ha ([3]; 125 g ai/ha, visual rating about 10 d after treatment, read-out: Wheat plant response rating (0 to 100 scale)) was 20% and the plant injury at 500 g/ha ([3]; 500 g ai/ha, visual injury, 0 to 100 scale (0 no effect, 100 complete control), approx. 10 d, read-out: Plant response rating, Wheat) was 20%. It also gave a pest or weed control at 125 g/ha ([4]; 125 g ai/ha, visual rating about 10 d after treatment, read-out: Blackgrass plant response rating (0 to 100 scale)) of 0%, a pest or weed control at 500 g/ha ([4]; 500 g ai/ha, visual injury, 0 to 100 scale (0 no effect, 100 complete control), approx. 10 d, read-out: Plant response rating, Blackgrass) of 60% and a plant injury at 125 g/ha (corn (Zea mays); 125 g ai/ha, visual rating about 10 d after treatment, read-out: Corn plant response rating (0 to 100 scale)) of 0%. The Corn plant response rating (crop injury, 0 = no effect, 100 = complete kill) at 500 g/ha (corn (Zea mays); 500 g ai/ha, visual injury, 0 to 100 scale (0 no effect, 100 complete control), approx. 10 d) was 20%, the pest or weed control at 125 g/ha ([5]; 125 g ai/ha, visual rating about 10 d after treatment, read-out: Ryegrass, Italian plant response rating (0 to 100 scale)) was 0% and the pest or weed control at 500 g/ha ([5]; 500 g ai/ha, visual injury, 0 to 100 scale (0 no effect, 100 complete control), approx. 10 d, read-out: Plant response rating, Ryegrass, Italian) was 20%. The pest or weed control at 125 g/ha ([6]; 125 g ai/ha, visual rating about 10 d after treatment, read-out: Pigweed plant response rating (0 to 100 scale)) was 0%, the pest or weed control at 500 g/ha ([6]; 500 g ai/ha, visual injury, 0 to 100 scale (0 no effect, 100 complete control), approx. 10 d, read-out: Plant response rating, Pigweed) was 0% and the pest or weed control at 125 g/ha ([7]; 125 g ai/ha, visual rating about 10 d after treatment, read-out: Foxtail, Giant plant response rating (0 to 100 scale)) was 30%. It also gave a pest or weed control at 500 g/ha ([7]; 500 g ai/ha, visual injury, 0 to 100 scale (0 no effect, 100 complete control), approx. 10 d, read-out: Plant response rating, Foxtail, Giant) of 70%, a pest or weed control at 125 g/ha ([8]; 125 g ai/ha, visual rating about 10 d after treatment, read-out: Galium plant response rating (0 to 100 scale)) of 30% and a pest or weed control at 500 g/ha ([8]; 500 g ai/ha, visual injury, 0 to 100 scale (0 no effect, 100 complete control), approx. 10 d, read-out: Plant response rating, Galium) of 50%. It also gave a pest or weed control at 125 g/ha ([9]; 125 g ai/ha, visual rating about 10 d after treatment, read-out: Barnyardgrass plant response rating (0 to 100 scale, 0 no effect, 100 complete control)) of 90%, a pest or weed control at 500 g/ha ([9]; 500 g ai/ha, visual injury, 0 to 100 scale (0 no effect, 100 complete control), approx. 10 d, read-out: Plant response rating, Barnyardgrass) of 90% and a pest or weed control at 500 g/ha ([10]; 500 g ai/ha, preemergence, 0 to 100 scale where 0 is no effect and 100 is complete control, read-out: Ragweed plant response rating) of 50%. The pest or weed control at 125 g/ha ([10]; Preemergence, 125 g ai/ha, 0 to 100 scale (0 no effect, 100 complete control), read-out: Plant response rating, Ragweed) was 40%, the pest or weed control at 500 g/ha (Kochia (Kochia scoparia) [11]; 500 g ai/ha, preemergence, 0 to 100 scale where 0 is no effect and 100 is complete control, read-out: Kochia plant response rating) was 60% and the pest or weed control at 125 g/ha (Kochia (Kochia scoparia) [11]; Preemergence, 125 g ai/ha, 0 to 100 scale (0 no effect, 100 complete control), read-out: Plant response rating, Kochia) was 60%. It also gave a pest or weed control at 500 g/ha ([12]; 500 g ai/ha, preemergence, 0 to 100 scale where 0 is no effect and 100 is complete control, read-out: Ryegrass, Italian plant response rating) of 20%, a pest or weed control at 125 g/ha ([12]; Preemergence, 125 g ai/ha, 0 to 100 scale (0 no effect, 100 complete control), read-out: Plant response rating, Ryegrass, Italian) of 0% and a pest or weed control at 500 g/ha ([13]; 500 g ai/ha, preemergence, 0 to 100 scale where 0 is no effect and 100 is complete control, read-out: Pigweed plant response rating) of 20%. The pest or weed control at 125 g/ha ([13]; Preemergence, 125 g ai/ha, 0 to 100 scale (0 no effect, 100 complete control), read-out: Plant response rating, Pigweed) was 0%, the pest or weed control at 500 g/ha ([14]; 500 g ai/ha, preemergence, 0 to 100 scale where 0 is no effect and 100 is complete control, read-out: Foxtail, Giant plant response rating) was 90% and the pest or weed control at 125 g/ha ([14]; Preemergence, 125 g ai/ha, 0 to 100 scale (0 no effect, 100 complete control), read-out: Plant response rating, Foxtail, Giant) was 80%. The pest or weed control at 500 g/ha ([15]; 500 g ai/ha, preemergence, 0 to 100 scale where 0 is no effect and 100 is complete control, read-out: Barnyardgrass plant response rating) was 90% and the pest or weed control at 125 g/ha ([15]; Preemergence, 125 g ai/ha, 0 to 100 scale (0 no effect, 100 complete control), read-out: Plant response rating, Barnyardgrass) was 90%.
